In patent publication US20110034498A1, “DOSING REGIMENS FOR THE TREATMENT OF CANCER” (priority 2006, published 2011):

Tests used:
Format in all cases: in vivo
SKOV-3 cells = assay: mouse SKOV-3 xenograft model, subcutaneous tumor burden; conditions: for End Volume / Start Volume: nude mice, HCl salt via s.c. Alzet mini pump; for End Volume: treatment lasted 74 days; for Start Volume: tumor volume at start
Method: When the average tumor size reached 50 mm^3, animals were randomly assigned to treatment groups. […] Tumor volumes of the two groups were measured at regular intervals during treatment, which lasted 74 days.

PAN-02 cells = assay: mouse PAN-02 xenograft model, subcutaneous tumor burden
Excerpt: The PAN-02 cells were maintained by in vivo passaging in C57/1316 mice. Male C57/B16 mice were implanted with PAN-02 cells (8 mm^3 tumor fragments) into the inguinal area. Each mouse was implanted with an 8 mm^3 tumor PAN-02 tumor fragment collected from a donor mouse. The tumor fragment was loaded onto a 16 G trocar and implanted by piercing through the skin in the right inguinal area. The animals were randomly assigned to treatment groups (N=14/group). […] Mice received either vehicle or the test compound at 20 mg/kg/day. Tumor volumes of the two groups were measured at regular intervals during treatment, which lasted 32 days.

PC-3 cells = assay: mouse PC-3 prostate xenograft model, subcutaneous tumor burden; conditions: for End Volume / Start Volume: 10 mg/kg/day (table); for End Volume: after 25 days of treatment; for Start Volume: tumor volume at start
Method: A study was performed in mouse PC-3 prostate xenograft models to assess the ability of the methods of the present invention to reduce subcutaneous tumor burden. In the study male athymic nude (Nu/Nu) mice were implanted with PC-3 cells (1×10^7 cells) into the flank of the left leg. When the average tumor size reached 200 mm^3 animals were randomly assigned to treatment groups (N=12/group). Mice were implanted with Alzet mini pumps containing either the HCl salt of compound 1 or vehicle (30% HPBCD in WFI). The mini pumps were surgically implanted subcutaneously on the flank of the right leg, contralateral to the site of the tumor implant. The pumps were replaced with new pumps every 6th day of the study. In the study, mice received either vehicle or the test compound at 10.6 mg/kg/day. Tumor volumes for each group were measured at regular intervals during treatment. The animals were sacrificed after 25 days of treatment and tumor volumes were compared.
A study was performed in mouse PC-3 prostate xenograft models to assess the ability of the methods of the present invention to reduce subcutaneous tumor burden. Male athymic nude (Nu/Nu) mice were implanted with PC-3 cells (1×10^7 cells) into the flank of the left leg. When the average tumor size reached 200 mm^3, animals were randomly assigned to treatment groups (N=12/group). […] The mini pumps were surgically implanted subcutaneously on the flank of the right leg, contralateral to the site of the tumor implant. The pumps were replaced with new pumps every 6th day of the study. Mice received either vehicle or the test compound at 10.6 mg/kg/day. Tumor volumes for each group were measured at regular intervals during treatment. The animals were sacrificed after 25 days of treatment, and tumor volumes were compared.

[1] = PC-3 xenograft, male athymic nude mice, HCl salt via s.c. Alzet mini pump, continuous
[2] = PC-3 xenograft (Example 5), nude mice, HCl salt of cyclopamine via s.c. Alzet mini pump

Compound | growth of the tumors (SKOV-3 cells; continuous doses 10.6 or 20 mg/kg/day, 74 days, versus vehicle) | End Volume (SKOV-3 cells; 10.6 mg/kg/day) | Start Volume (SKOV-3 cells; 10.6 mg/kg/day) | End Volume (SKOV-3 cells; 20 mg/kg/day) | Start Volume (SKOV-3 cells; 20 mg/kg/day) | growth of the tumors (PAN-02 cells; PAN-02 model, continuous doses 20 mg/kg/day, 32 days, versus vehicle) | End Volume (PAN-02 cells; PAN-02 tumor fragments in male C57/B16 mice, HCl salt via s.c. Alzet mini pump, 20 mg/kg/day, treatment lasted 32 days) | Start Volume (PAN-02 cells; PAN-02 tumor fragments in male C57/B16 mice, HCl salt via s.c. Alzet mini pump, 20 mg/kg/day, tumor volume at start) | End Volume (PC-3 cells; [1]) | Start Volume (PC-3 cells; [1]) | growth of the tumors (PC-3 cells; PC-3 xenograft, continuous doses 10.6 mg/kg/day, 25 days, versus vehicle) | End Volume (PC-3 cells; [2]) | Start Volume (PC-3 cells; [2])
CC1=C2C[C@H]3[C@@H](CCC4=CC(=O)CC[C@@]43C)[C@@H]2CC[C@@]2(C1)O[C@@H]1C[C@H](C)CN[C@H]1[C@H]2C [Compound 1] | significantly reduced | 186 ± 57 mm^3 | 57 ± 5 mm^3 | 52 ± 11 mm^3 | 31 ± 4 mm^3 | significantly reduced | 481 ± 64 mm^3 | 82 ± 8 mm^3 | 444 ± 101 mm^3 | 188 ± 17 mm^3 | significantly reduced | – | –
CC1=C2C[C@H]3[C@@H](CC=C4C[C@@H](O)CC[C@@]43C)[C@@H]2CC[C@]12O[C@@H]1C[C@H](C)CN[C@H]1[C@H]2C [Cyclopamine, reference compound] | – | – | – | – | – | – | – | – | – | – | – | 448 ± 152 mm^3 | 170 ± 29 mm^3
